Experimental data taken from US20220177485A1, “CAMPTOTHECIN DERIVATIVE, PREPARATION METHOD THEREFOR AND APPLICATION THEREOF” (MARINE BIOMEDICAL RESEARCH INSTITUTE OF QINGDAO CO., LTD., priority 2018, published 2022).
Like-named read-outs stand apart in the source and are kept apart here.

Tests used:
[1] = tested on: A549 cell non-small cell lung cancer cell line; test: growth inhibition of tumor cells in vitro, A549; assay type: cell-based, human
Excerpt: (§1) We tested compounds target a variety of tumor cell for the growth inhibition to show its antitumor activity by using the method of the field technicians known. Chooses the tumor cell lines include: A549 cell non-small cell lung cancer cell line (people), K562 cells (human chronic myeloid leukemia cells), NCI-H1975 cells (non-small cell lung adenocarcinoma cancer cell), MDA-MB-231 cells (human breast cancer cells) and HCT-116 cells (human colon cancer cells).

[2] = tested on: K562 cells (human chronic myeloid leukemia cells); test: growth inhibition of tumor cells in vitro, K562; assay type: cell-based
Excerpt: as §1

[3] = biological target: heat shock protein (HSP90); test: macromolecular interaction on chip, HSP90; assay type: binding; details: compound fixed on the chip; HSP90 100 nM
Procedure: (§2) The experimental scheme: 1. Fixed the compounds on the chip:
(§3) Mobile phase were EGF (1 μM), FGF (1 μM), HSP90 (100 nM), FKBP12 (100 nM).
(§4) Detection whether small molecule compounds combined with the provided protein of heat shock protein (HSP90), epidermal growth factor (EGF) and fibroblast growth factor (FGF); and provide relevant data of combined dynamics.

[4] = biological target: T1, epidermal growth factor (EGF) (Homo sapiens, UniProt P01133); test: macromolecular interaction on chip, EGF; assay type: binding; details: for KD EGF: compound fixed on the chip, EGF 1 μM
T1 construct: epidermal growth factor (EGF)
Procedure: as §2, §3, §4

[5] = biological target: fibroblast growth factor (FGF); test: macromolecular interaction on chip, FGF; assay type: binding; details: compound fixed on the chip; FGF 1 μM
Procedure: as §2, §3, §4

[6] = tested on: NCI-H1975 cells (non-small cell lung adenocarcinoma cancer cell); test: growth inhibition of tumor cells in vitro, NCI-H1975; assay type: cell-based; details: for IC50: Homo sapiens, NCI-H1975, read-out: IC50 NCI-H1975
Excerpt: as §1

[7] = tested on: MDA-MB-231 cells (human breast cancer cells); test: growth inhibition of tumor cells in vitro, MDA-MB-231; assay type: cell-based; details: for IC50: Homo sapiens, MDA-MB-231, read-out: IC50 MDA-MB-231
Excerpt: as §1

[8] = tested on: HCT-116 cells (human colon cancer cells); test: cells; assay type: cell-based; details: Homo sapiens, HCT-116, read-out: IC50 HCT-116
Excerpt: as §1

[9] = Homo sapiens, A549, A549 cell line, read-out: IC50 A549
[10] = K562 cell line, read-out: IC50 K562
[11] = Homo sapiens, A549, read-out: IC50 A549, A549 cell line

T1 sequence (P01133 971-1023 limits assumed, species assumed): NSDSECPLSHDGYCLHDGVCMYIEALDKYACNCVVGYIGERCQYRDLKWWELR

| SMILES | melting point [°C] | IC50 [1, 9] [µM] | IC50 [2, 10] [µM] | KD HSP90 [3] | KD EGF [4] | KD FGF [5] | further results |
| --- | --- | --- | --- | --- | --- | --- | --- |
| CC[C@@]1(O)C(=O)OCc2c1cc1n(c2=O)Cc2c-1nc1cc3c(cc1c2CCc1ccc(N2CCCCC2)cc1)OCO3 | > 250 |  |  |  |  |  |  |
| CC[C@@]1(O)C(=O)OCc2c1cc1n(c2=O)Cc2c-1nc1cc3c(cc1c2CCc1cc(F)c(N2CCCC2)c(F)c1)OCO3 | > 250 |  |  |  |  |  |  |
| CC[C@@]1(O)C(=O)OCc2c1cc1n(c2=O)Cc2c-1nc1cc3c(cc1c2/C=C/C=C/c1ccccc1)OCO3 [Compound 1, 20(S)-7-(styrene-butadiene-yl)-10,11-methylenedioxy-camptothecin] | 206 to 214 | 0.763 ± 0.00505 | 1.652 ± 0.0106 | No combination | No combination | No combination |  |
| CC[C@@]1(O)C(=O)OCc2c1cc1n(c2=O)Cc2c-1nc1cc3c(cc1c2/C=C/C=C/c1ccc(OC)cc1)OCO3 [Compound 2] |  | 1.268 ± 0.00465 | 2.693 ± 0.00963 | No combination | No combination | No combination |  |
| CC[C@@]1(O)C(=O)OCc2c1cc1n(c2=O)Cc2c-1nc1cc3c(cc1c2/C=C/c1ccc(F)cc1)OCO3 [Compound 3, 20(S)-7-(4-fluorostyryl)-10,11-methylenedioxy-camptothecin] | > 250 |  | 0.066 ± 0.00365 | No combination | can combine | No combination | Kd [4]: 0.0053 µM |
| CC[C@@]1(O)C(=O)OCc2c1cc1n(c2=O)Cc2c-1nc1cc3c(cc1c2/C=C/c1cccc(F)c1)OCO3 [Compound 4, 20(S)-7-(3-fluorostyryl)-10,11-methylenedioxy-camptothecin] | > 250 |  |  | No combination | No combination | No combination |  |
| CC[C@@]1(O)C(=O)OCc2c1cc1n(c2=O)Cc2c-1nc1cc3c(cc1c2/C=C/c1ccccc1F)OCO3 [Compound 5, 20(S)-7-(2-fluorostyryl)-10,11-methylenedioxy-camptothecin] | > 250 |  |  | No combination | No combination | No combination |  |
| CC[C@@]1(O)C(=O)OCc2c1cc1n(c2=O)Cc2c-1nc1cc3c(cc1c2/C=C/c1ccc(F)c(F)c1)OCO3 [Compound 6] |  | 0.53 ± 0.0076 | 0.757 ± 0.00862 | No combination | No combination | can combine | Kd [5]: 0.00899 µM |
| CC[C@@]1(O)C(=O)OCc2c1cc1n(c2=O)Cc2c-1nc1cc3c(cc1c2/C=C/c1cc(F)c(F)c(F)c1)OCO3 [Compound 7] |  | 1.904 ± 0.00864 | 1.772 ± 0.00968 | No combination | can combine | can combine | Kd [4]: 0.0515 µM; Kd [5]: 0.0536 µM |
| CC[C@@]1(O)C(=O)OCc2c1cc1n(c2=O)Cc2c-1nc1cc3c(cc1c2CCc1ccc(N2CCOCC2)cc1)OCO3 [Compound 8, 20(S)-7-(4-(4-morpholino)phenethyl)-10,11-methylenedioxy-camptothecin] |  |  |  | No combination | No combination | No combination |  |
| CC[C@@]1(O)C(=O)OCc2c1cc1n(c2=O)Cc2c-1nc1cc3c(cc1c2CCc1ccc(N2CCCC2)cc1)OCO3 [Compound 9, 20(S)-7-(4-(pyrrolidin-1-yl)phenethyl)-10,11-methylenedioxy-camptothecin] | 205 to 207 | 1.522 ± 0.0105 | 1.366 ± 0.0125 | No combination | No combination | No combination |  |
| CC[C@@]1(O)C(=O)OCc2c1cc1n(c2=O)Cc2c-1nc1cc3c(cc1c2CCc1ccc(N2CCOCC2)c(F)c1)OCO3 [Compound 10, 20(S)-7-(3-fluoro-4-(4-morpholino)phenethyl)-10,11-methylenedioxy-camptothecin] | > 250 | 1.223 ± 0.00875 | 0.564 ± 0.00985 | No combination | No combination | No combination |  |
| CC[C@@]1(O)C(=O)OCc2c1cc1n(c2=O)Cc2c-1nc1cc3c(cc1c2CCc1cccc(N2CCOCC2)c1)OCO3 [Compound 14] | 163 to 165 | 0.01 to 0.05 | 1.949 ± 0.0157 | No combination | No combination | No combination | IC50 ([1]; A549 cell line, read-out: IC50 A549): 0.019 ± 0.00347 µM |
| CC[C@@]1(O)C(=O)OCc2c1cc1n(c2=O)Cc2c-1nc1cc3c(cc1c2CCc1ccccc1N1CCCC1)OCO3 [Compound 16, 20(S)-7-(2-(pyrrolidin-1-yl)phenethyl)-10,11-methylenedioxy-camptothecin] | 139 to 140 |  | 0.115 ± 0.0076 |  |  |  |  |
| CC[C@@]1(O)C(=O)OCc2c1cc1n(c2=O)Cc2c-1nc1cc3c(cc1c2CCc1cc(F)c(N2CCOCC2)c(F)c1)OCO3 [Compound 18, 20(S)-7-(3,5-difluoro-4-(4-morpholino)phenethyl)-10,11-methylenedioxy-camptothecin] | 246 to 247 |  | 0.489 ± 0.00665 |  |  |  |  |
| CC[C@@]1(O)C(=O)OCc2c1cc1n(c2=O)Cc2c-1nc1cc3c(cc1c2CCc1ccc(N2CCSCC2)cc1)OCO3 [Compound 20, 20(S)-7-(4-(4-thiomorpholino)phenethyl)-10,11-methylenedioxy-camptothecin] | 154 to 156 |  | 0.145 ± 0.00435 |  |  |  |  |
| CC[C@@]1(O)C(=O)OCc2c1cc1n(c2=O)Cc2c-1nc1cc3c(cc1c2-c1cccnc1)OCO3 [Compound 22, 20(S)-7-(pyridin-3-yl)-10,11-methylenedioxy-camptothecin] |  |  |  |  |  |  | IC50 [6]: 0.0126 ± 0.00243 µM; IC50 [7]: 0.00409 ± 0.00046 µM; IC50 [8]: 0.00018 ± 3e-05 µM |
| CC[C@@]1(O)C(=O)OCc2c1cc1n(c2=O)Cc2c-1nc1cc3c(cc1c2-c1cccs1)OCO3 [Compound 26, 20(S)-7-(thiophene-2-yl)-10,11-methylenedioxy-camptothecin] |  |  |  |  |  |  | IC50 [6]: 0.00036 ± 6e-05 µM; ranking of activity in NCI-H1975 ([6]; among Table 2 compounds): best activities; IC50 [7]: 0.00056 ± 3e-05 µM; ranking of activity in MDA-MB-231 ([7]; among Table 2 compounds): best activities; IC50 [8]: 0.102 ± 0.00618 µM |
| CC[C@@]1(O)C(=O)OCc2c1cc1n(c2=O)Cc2c-1nc1cc3c(cc1c2-c1ccco1)OCO3 [Compound 27, 20(S)-7-(furan-2-yl)-10,11-methylenedioxy-camptothecin] |  |  |  |  |  |  | IC50 [6]: 0.00453 ± 0.00016 µM; IC50 [7]: 0.00179 ± 0.00014 µM; IC50 [8]: 0.00025 ± 1e-05 µM |
| CC[C@@]1(O)C(=O)OCc2c1cc1n(c2=O)Cc2c-1nc1cc3c(cc1c2-c1cnn(C2CCCCO2)c1)OCO3 (some centres unmarked) [Compound 28] |  |  |  |  |  |  | IC50 [6]: 0.00797 ± 0.00052 µM; IC50 [7]: 0.00156 ± 0.00014 µM; IC50 [8]: 0.00078 ± 6e-05 µM |
| CC[C@@]1(O)C(=O)OCc2c1cc1n(c2=O)Cc2c-1nc1cc3c(cc1c2-c1ccc(F)cc1)OCO3 [Compound 32] |  |  | 0.963 ± 0.00761 | No combination | No combination | No combination |  |
| CC[C@@]1(O)C(=O)OCc2c1cc1n(c2=O)Cc2c-1nc1cc3c(cc1c2-c1cc(C(F)(F)F)cc(C(F)(F)F)c1)OCO3 [Compound 33] |  | 0.174 ± 0.00862 | 0.702 ± 0.00887 |  |  |  |  |
| CC[C@@]1(O)C(=O)OCc2c1cc1n(c2=O)Cc2c-1nc1cc3c(cc1c2-c1ccccc1)OCO3 [Compound 36] |  | 0.422 ± 0.0103 | 1.327 ± 0.00896 |  |  |  |  |
| CC[C@@]1(O)C(=O)OCc2c1cc1n(c2=O)Cc2c-1nc1cc3c(cc1c2-c1ccc(C(C)(C)C)cc1)OCO3 [Compound 37] |  |  |  |  |  |  | IC50 [1, 11]: 0.387 ± 0.00375 µM; IC50 ([2]; K562, read-out: IC50 K562): 0.785 ± 0.00923 µM |
| CC[C@@]1(O)C(=O)OCc2c1cc1n(c2=O)Cc2c-1nc1cc3c(cc1c2-c1ccc2c(c1)OCO2)OCO3 [Compound 38] |  |  |  |  |  |  | IC50 [1, 11]: 0.282 ± 0.00777 µM; IC50 ([2]; K562, read-out: IC50 K562): 0.202 ± 0.00732 µM |
| CC[C@@]1(O)C(=O)OCc2c1cc1n(c2=O)Cc2c-1nc1cc3c(cc1c2-c1ccc(F)cc1F)OCO3 [Compound 40] |  |  |  |  |  |  | IC50 [1, 11]: 0.836 ± 0.00869 µM; IC50 ([2]; K562, read-out: IC50 K562): 1.168 ± 0.00969 µM |
| CC[C@@]1(O)C(=O)OCc2c1cc1n(c2=O)Cc2c-1nc1cc3c(cc1c2-c1ccccc1F)OCO3 [Compound 41] |  |  |  |  |  |  | IC50 ([2]; K562, read-out: IC50 K562): 1.037 ± 0.0103 µM |
| CC[C@@]1(O)C(=O)OCc2c1cc1n(c2=O)Cc2c-1nc1cc3c(cc1c2-c1ccc(F)c(F)c1)OCO3 [Compound 42] |  |  | 0.181 ± 0.00855 |  |  |  |  |
| CC[C@@]1(O)C(=O)OCc2c1cc1n(c2=O)Cc2c-1nc1cc3c(cc1c2N1CCOCC1)OCO3 [Compound 43, 20(S)-7-morpholino-10,11-methylenedioxy-camptothecin] | > 250 |  |  |  |  |  | IC50 ([2]; K562, read-out: IC50 K562): 0.837 ± 0.00944 µM |
| CC[C@@]1(O)C(=O)OCc2c1cc1n(c2=O)Cc2c-1nc1cc3c(cc1c2CCN1CCCCC1)OCO3 [Compound 52, 20(S)-7-(2-(piperidin-1-yl)ethyl)-10,11-methylenedioxy-camptothecin] |  |  |  | No combination | No combination | can combine | Kd [5]: 0.00715 µM |
